Reference: US12157727B2, “Substituted tetrahydroquinolin compounds as indoleamine 2,3-dioxygenase (IDO) inhibitors” (Merck Sharp & Dohme LLC, priority 2019, dated 2024)

target: T1, IDO1 (Homo sapiens, UniProt P14902); test: IDO1 Human Whole Blood Assay; format: cell-based; conditions: LPS and IFNγ 100 ng/mL, overnight (18 h), kynurenine by LC/MS/MS
T1 construct: Human whole blood was drawn in sodium heparin coated tubes from healthy internal donors; from tissue; host or cells: human whole blood from healthy donors, stimulated with LPS and IFNγ
T1 sequence (P14902 whole entry): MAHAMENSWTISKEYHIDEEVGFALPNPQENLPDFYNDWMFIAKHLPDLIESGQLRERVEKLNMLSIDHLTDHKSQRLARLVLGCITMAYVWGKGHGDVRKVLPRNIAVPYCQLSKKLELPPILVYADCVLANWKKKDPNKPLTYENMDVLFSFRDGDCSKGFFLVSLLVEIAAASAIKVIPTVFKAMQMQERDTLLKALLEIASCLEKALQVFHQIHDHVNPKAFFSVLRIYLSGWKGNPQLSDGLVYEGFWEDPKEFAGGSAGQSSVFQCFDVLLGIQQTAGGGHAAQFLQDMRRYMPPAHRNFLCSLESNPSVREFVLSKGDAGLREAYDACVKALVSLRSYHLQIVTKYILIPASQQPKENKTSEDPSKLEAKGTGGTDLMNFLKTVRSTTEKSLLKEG
Experimental: Compounds to be tested were serially diluted in ten 3-fold steps in DMSO starting from 10 mM. 3 μL of compound dilutions or DMSO alone were then dispensed from the dilution plate into a polypropylene 96-well assay plate containing 97 μL of RPMI using an Echo 555 acoustic liquid handler (Labcyte). LPS and IFNγ was prepared in RPMI to a 10× of final conc. (1000 ng/mL), final concentration is 100 ng/mL.
Human whole blood was drawn in sodium heparin coated tubes from healthy internal donors. 240 μL of blood was transferred to each of the wells of a v-bottom 96 well plate. 30 μL of compound was transferred from intermediate dilution plate, and incubated for 15 min. 30 μL from stimulants was then transferred to blood and mixed thoroughly. Plate was covered with breathable membrane and incubated at 37° C. for overnight (18 h).
On day 2 isotope labeled standard of kynurenine and tryptophan was made in water at 10×concentration and 30 μL was added to the blood at 3 μM final concentration. The assay plates were centrifuged at 300×G for 10 min with no brake to separate plasma from red blood cells. 60 μL of plasma samples was removed without disturbing red blood cells. Plasma was diluted with RPMI in 1:1 ratio and proteins were precipitated out with two volumes of Acetonitrile. The plates were centrifuged at 4000×G for 60 min. 20 μL of supernatant was carefully transferred to a 384 well plate contain 40 μL of 0.1% formic acid in water and analyzed by LC/MS/MS.
LC/MS/MS analyses were performed using Thermo Fisher's LX4-TSQ Quantum Ultra system. This system consists of four Agilent binary high-performance liquid chromatography (HPLC) pumps and a TSQ Quantum Ultra triple quadrupole MS/MS instrument. For each sample, 5 μL were injected onto an Atlantis T3 column (2.1 mm×150 mm, 3 μm particle size) from Waters. The mobile phase gradient pumped at 0.8 mL/min was used to elute the analytes from the column at 25° C. The elution started at 0% B increasing linearly to 25% B at 6.5 min, holding at 25% for 1 min, re-equilibrating to 10 min. Mobile phase A consisted of 0.1% formic acid in water. Mobile phase B consisted of 0.1% of formic acid in acetonitrile. Data was acquired in positive mode using a HESI interface. The operational parameters for the TSQ Quantum Ultra instrument were a spray voltage of 4000 V, capillary temperature of 380° C., vaporizer temperature 400° C., shealth gas 60 arbitrary units, Aux gas 20 arbitrary units, tube lens 85 and collision gas 1.2 mTorr. SRM chromatograms of kynurenine (Q1: 209.2>Q3:94.0) and internal standard (Q1: 215.3>Q3:98.2) were collected for 90 sec. The peak area was integrated by Xcalibur Quan software. The ratios between the kynurenine generated in the reaction and 2D6-Kynurenine spiked-in internal standard were used to generate percentage inhibition and IC50 values. Compounds were titrated and IC50' s were calculated by 4 parameter sigmoidal curve fitting formula.

Compound | IC50
C[C@H](c1ccc2c(n1)CCCN2C(=O)OC1CC1)c1nc2ccc(Cl)cc2[nH]1 [Example 27, cyclopropyl (R)-6-(1-(6-chloro-1H-benzo[d]imidazol-2-yl)ethyl)-3,4-dihydro-1,5-naphthyridine-1(2H)-carboxylate] | 56.8 nM
O=C(OC1CC1)N1CCCc2nc(C3(c4nc5ncc(C(F)(F)F)cc5[nH]4)CCC3)ccc21 [Example 23, cyclopropyl 6-{1-[6-(trifluoromethyl)-1H-imidazo[4,5-b]pyridin-2-yl]cyclobutyl}-3,4-dihydro-1,5-naphthyridine-1(2H)-carboxylate] | 64.2 nM
N#Cc1cnc2nc(C3(c4ccc5c(n4)CCCN5C(=O)OC4CC4)CCC3)[nH]c2c1 [Example 24, cyclopropyl 6-[1-(6-cyano-1H-imidazo[4,5-b]pyridin-2-yl)cyclobutyl]-3,4-dihydro-1,5-naphthyridine-1(2H)-carboxylate] | 121 nM
O=C([C@H]1CCCCO1)N1CCCc2nc(C3(c4nc5ncc(C(F)(F)F)cc5[nH]4)CCC3)ccc21 [Example 16, (R)-(tetrahydro-2H-pyran-2-yl)(6-(1-(6-(trifluoromethyl)-1H-imidazo[4,5-b]pyridin-2-yl)cyclobutyl)-3,4-dihydro-1,5-naphthyridin-1(2H)-yl)methanone] | 14.1 nM
COC(=O)N1CCCc2nc(C3(c4nc5cc(C(F)(F)F)cnc5[nH]4)CCC3)ccc21 [Example 18, methyl 6-(1-(6-(trifluoromethyl)-3H-imidazo[4,5-b]pyridin-2-yl)cyclobutyl)-3,4-dihydro-1,5-naphthyridine-1(2H),-carboxylate] | 494 nM
CC(c1ccc2c(n1)CCCN2C(=O)OC1CC1)c1nc2ccc(Cl)cc2[nH]1 (stereo not drawn) [Example 25, cyclopropyl 6-(1-(6-chloro-1H-benzo[d]imidazol-2-yl)ethyl)-3,4-dihydro-1,5-naphthyridine-1(2H)-carboxylate] | 117 nM
FC(F)(F)c1nccc(N2CCCc3nc(C4(c5nc6cc(Cl)cnc6[nH]5)CCC4)ccc32)n1 [Example 35, 6-[1-(6-chloro-3H-imidazo[4,5-b]pyridin-2-yl)cyclobutyl]-1-[2-(trifluoromethyl)pyrimidin-4-yl]-1,2,3,4-tetrahydro-1,5-naphthyridine] | 53.9 nM
FC(F)(F)c1nccc(N2CCCc3nc(C4(c5nc6cc(Cl)ccc6[nH]5)CCC4)ccc32)n1 [Example 33, 6-[1-(5-chloro-1H-benzimidazol-2-yl)cyclobutyl]-1-[2-(trifluoromethyl)pyrimidin-4-yl]-1,2,3,4-tetrahydro-1,5-naphthyridine] | 83.3 nM
N#Cc1ccc2nc(C3(c4ccc5c(n4)CCCN5c4ccnc(C(F)(F)F)n4)CC4(CC4)C3)[nH]c2c1 [Example 41, 2-(5-(5-(2-(trifluoromethyl)pyrimidin-4-yl)-5,6,7,8-tetrahydro-1,5-naphthyridin-2-yl)spiro[2,3]hexan-5-yl)-1H-benzo[d]imidazole-6-carbonitrile] | 71.3 nM
N#Cc1ccc2nc(C3(c4ccc5c(n4)CCCN5C(=O)OC4CC4)CCC3)[nH]c2c1 [Example 20, cyclopropyl 6-[1-(6-cyano-1H-benzimidazol-2-yl)cyclobutyl]-3,4-dihydro-1,5-naphthyridine-1(2H)-carboxylate] | 35 nM
Cc1nccc(N2CCCc3nc(C4(c5nc6cc(Cl)ccc6[nH]5)CCC4)ccc32)n1 [Example 34, 6-[1-(6-chloro-1H-benzimidazol-2-yl)cyclobutyl]-1-(2-methylpyrimidin-4-yl)-1,2,3,4-tetrahydro-1,5-naphthyridine] | 140 nM
O=C([C@H]1CCCO1)N1CCCc2cc(C3(c4nc5ncc(C(F)(F)F)cc5[nH]4)CCC3)ccc21 [Example 3, [(2R)-oxolan-2-yl][6-{1-[6-(trifluoromethyl)-1H-imidazo[4,5-b]pyridin-2-yl]cyclobutyl}-3,4-dihydroquinolin-1(2H)-yl]methanone] | 30.7 nM
COC(=O)N1CCCc2cc(C3(c4nc5ncc(C(F)(F)F)cc5[nH]4)CCC3)ccc21 [Example 5, Methyl 6-(1-(6-(trifluoromethyl)-1H-imidazo[4,5-b]pyridin-2-yl)cyclobutyl)-3,4-dihydroquinoline-1(2H)-carboxylate] | 229 nM
Cc1nccc(N2CCCc3nc(C4(c5nc6cc(C(F)(F)F)cnc6[nH]5)CCC4)ccc32)n1 [Example 30, 1-(2-methylpyrimidin-4-yl)-6-(1-(6-(trifluoromethyl)-3H-imidazo[4,5-b]pyridin-2-vyl)cyclobutyl)-1,2,3,4-tetrahydro-1,5-naphthyridine] | 355 nM
O=C(c1ccccc1Cl)N1CCCc2nc(C3(c4nc5ncc(C(F)(F)F)cc5[nH]4)CCC3)ccc21 [Example 17, (2-chlorophenyl)[6-{1-[6-(trifluoromethyl)-1H-imidazo[4,5-b]pyridin-2-yl]cyclobutyl}-3,4-dihydro-1,5-naphthyridin-1(2H)-yl]methanone] | 47.8 nM
O=C(OC1CC1)N1CCCc2nc(C3(c4nc5ncc(Cl)cc5[nH]4)CCC3)ccc21 [Example 22, cyclopropyl 6-[1-(6-chloro-1H-imidazo[4,5-b]pyridin-2-yl)cyclobutyl]-3,4-dihydro-1,5-naphthyridine-1(2H)-carboxylate] | 60.5 nM
N#Cc1ccc2nc(C3(c4ccc5c(c4)CCCN5C(=O)C4CC4)CCC3)[nH]c2c1 [Example 4, 2-{1-[1-(cyclopropane-carbonyl)-1,2,3,4-tetrahydroquinolin-6-yl]cyclobutyl}-1H-benzimidazole-6-carbonitrile] | 27 nM
O=C([C@@H]1CCCCO1)N1CCCc2nc(C3(c4nc5ncc(C(F)(F)F)cc5[nH]4)CCC3)ccc21 [Example 15, (S)-(tetrahydro-2H-pyran-2-yl)(6-(1-(6-(trifluoromethyl)-1H-imidazo[4,5-b]pyridin-2-yl)cyclobutyl)-3,4-dihydro-1,5-naphthyridin-1(2H)-yl)methanone] | 26.1 nM
O=C(C1CC1)N1CCCc2nc(C3(c4nc5cc(C(F)(F)F)cnc5[nH]4)CCC3)ccc21 [Example 13, Cyclopropyl(6-(1-(6-(trifluoromethyl)-3H-imidazo[4,5-b]pyridin-2-yl)cyclobutyl)-3,4-dihydro-1,5-naphthyridin-1(2H),-yl)methanone] | 56.3 nM
C[C@@H](c1ccc2c(n1)CCCN2C(=O)OC1CC1)c1nc2ccc(Cl)cc2[nH]1 [Example 26, cyclopropyl (S)-6-(1-(6-chloro-1H-benzo[d]imidazol-2-yl)ethyl)-3,4-dihydro-1,5-naphthyridine-1(2H)-carboxylate] | 55 nM
O=C(OC1CC1)N1CCCc2nc(C3(c4nc5ccc(Cl)cc5[nH]4)CCC3)ccc21 [Example 21, cyclopropyl 6-[1-(6-chloro-1H-benzimidazol-2-yl)cyclobutyl]-3,4-dihydro-1,5-naphthyridine-1(2H)-carboxylate] | 44.1 nM
CCOC(=O)N1CCCc2nc(C3(c4nc5cc(C(F)(F)F)cnc5[nH]4)CCC3)ccc21 [Example 19, ethyl 6-{1-[6-(trifluoromethyl)-3H-imidazo[4,5-b]pyridin-2-yl]cyclobutyl}-3,4-dihydro-1,5-naphthyridine-1(2H)-carboxylate] | 274 nM
O=C(C1CC1)N1CCCc2cc(C3(c4nc5ncc(C(F)(F)F)cc5[nH]4)CCC3)ccc21 [Example 1, Cyclopropyl(6-(1-(6-(trifluoromethyl)-1H-imidazo[4,5-b]pyridin-2-yl)cyclobutyl)-3A-dihydroquinolin-1(2H)-yl)methanone] | 186 nM
O=C(C1CC1)N1CCCc2cc(C3(c4nc5ccc(Cl)cc5[nH]4)CCC3)ccc21 [Example 2, {6-[1-(6-chloro-1H-benzimidazol-2-yl)cyclobutyl]-3,4-dihydroquinolin-1(2H)-yl}(cyclopropyl) methanone] | 132 nM
